US20060063785A1, “Substituted pyrazolo[1,5-a] pyrimidines and process for making same” (priority 2004, published 2006)
pIC50: −log10 of the molar value.

These compounds were tested on 80S14 (p21-deficient) cells (assay: Determination of selectivity of compounds for p21-/- cells: IC50 in 80S14 cells (SRB)). Details: 80S14 (p21-deficient) cells, 5 days at 37° C., SRB; read-out: IC50 for 80S14.
Type: cell-based, human
Experimental: • 1. 80S14 (p21-deficient) cells were cultured in RPMI 1640 medium (Gibco/Invitrogen Life technologies) supplemented with 10% fetal bovine serum (FBS, Gibco) and 10 μg/ml gentamycin (Gibco). Cells were maintained at 37° C. under 7% CO2. • 2. Cells were plated at 6×10^4/ml (0.2 ml/well; 12,000 cells/well) in 96-well microtiter plates (Falcon or Corning/Costar) and incubated at 37° C. overnight (18-24 hours). • 3. 2-5 μl of the test agent-[200 μg/ml stock in 20% DMSO/20 mM HEPES, pH 7.5 (Gibco)] was added to each well to achieve a final concentration of 2-5 μg/ml. Cells were incubated with the test compounds for 5 days at 37° C. • 4. Surviving cells were fixed with 50 μl 50% trichloroacetic acid (Sigma; 10% final concentration) for 1 hour at 4° C. • 5. Plates were rinsed twice with water (0.3 ml per wash using MRD8 robot), and allowed to dry. • 6. Sulforhodamine B (SRB) (Sigma; 0.4% in 1% acetic acid, 50 μl per well; MRD8 robot) was added and plates kept at room temperature for 10 minutes. • 7. Excess dye was removed by washing with 1% acetic acid (3 times, 0.3 ml per wash; MRD8 robot) and allowed to dry. • 8. The dye was solubilized in Tris base (Sigma; 10 mM, 150 μl per well). Plates were kept at room temperature for 30 minutes to allow the dye to diffuse. • 9. Absorbance was measured at 540 nm. • 10. The percentage of cells surviving drug treatment relative to control wells (no drug) was determined. • 11. The difference in % cell survival between the two cell lines was calculated. • 12. Compounds producing a difference score of >50 were considered to be selective for the p21-deficient cells and were evaluated further. Determination of Selectivity of Compounds for p21−/− Cells: • 1. 80S14 cells were cultured as described above. • 2. Cells were seeded in 96-well microtiter plates at 12,000 cells/well (either 0.15 ml/well of 8×10^4 cells/ml suspension, or 0.2 ml/well of 6×10^4 cells/ml suspension). Plates were incubated at 37° C. overnight (18-24 hours). • 3. Serial dilutions of the test agent were added to each well. Dilutions were prepared either in 40% DMSO/20% methanol/20 mM HEPES, pH 7.5 (Gibco) or directly in growth medium. One of two dose ranges were used: 5 pM to 50 μM or 170 pg/ml to 10 μg/ml. Cells were incubated with the test compounds for 5 days at 37° C. • 4. Surviving cells were fixed with 50 μl 50% trichloroacetic acid (Sigma; 10% final concentration) for 1 hour at 4° C. • 5. Plates were rinsed extensively in water, and allowed to dry. • 6. Sulforhodamine B (Sigma; 0.4% in 1% acetic acid, 70 μl per well) was added and plates kept at room temperature for 10 minutes. • 7. Excess dye was removed by washing 5 times with 1% acetic acid and plates were allowed to dry. • 8. The dye was solubilized in Tris base (Sigma; 10 mM, 150 μl per well). Plates were placed on a titer plate shaker (Lab Line Instruments) for 5 minutes to allow the dye to diffuse. • 9. Absorbance was measured at 560 nm.
10. The drug concentration which inhibits cell proliferation by 50% relative to untreated controls (IC50) was determined from cytotoxicity curves.

Compared with `CCS(=O)(=O)Nc1cccc(-c2ccnc3c(C(=O)c4cccs4)cnn23)c1` [Example 21, N-{3-[-(thien-2-ylcarbonyl)pyrazolo[1,5-a]pyrimidin-7-yl]phenyl}ethanesulfonamide], `NCC(=O)Nc1cccc(-c2ccnc3c(C(=O)c4cccs4)cnn23)c1` [Example 59, N-1--{3-[3-(thien-2-ylcarbonyl)pyrazolo[1,5-a]pyrimidin-7-yl]phenyl}glycinamide] is lower in pIC50: over 6.00 for the first, 4.30 to 5.00 for the second.

First: COC(=O)CCC(=O)Nc1cccc(-c2ccnc3c(C(=O)c4cccs4)cnn23)c1 [Example 35, methyl 4-oxo-4-({3-[3-(thien-2-ylcarbonyl)pyrazolo[1,5-a]pyrimidin-7-yl]phenyl}anmino)butanoate]
Second: CCNC(=O)NCC(=O)Nc1cccc(-c2ccnc3c(C(=O)c4cccs4)cnn23)c1 [Example 119, N-2-[(ethylamino)carbonyl]-N-1-{3-[3-(thien-2-ylcarbonyl)pyrazolo[1,5-a]pyrimidin-7-1yl]phenyl}glycinamide]
The pIC50 of the first is lower: 4.30 to 5.00 for the first, 5.00 to 6.00 for the second. The second is the more potent here.

`O=C(c1cccs1)c1cnn2c(-c3cccc(NC(=O)C(Cl)(Cl)Cl)c3)ccnc12` [Example 38, 2,2,2-trichloro-N-{3-[3-(thien-2-ylcarbonyl)pyrazolo[1,5-a]pyrimidin-7-yl]phenyl} acetamide] and `C[C@H](N)C(=O)Nc1cccc(-c2ccnc3c(C(=O)c4cccs4)cnn23)c1` [Example 60, N-1-{3-[3-(thien-2-ylcarbonyl)pyrazolo[1,5-a]pyrimidin-7-yl]phenyl}-L-alaninamide] fall in the same range of pIC50: 5.00 to 6.00 for the first, 5.00 to 6.00 for the second.

Compared with `CC12CCC(C(=O)Nc3cccc(-c4ccnc5c(C(=O)c6cccs6)cnn45)c3)(OC1=O)C2(C)C` (centres unmarked) [Example 43], `CC(C)[C@H](N)C(=O)Nc1cccc(-c2ccnc3c(C(=O)c4cccs4)cnn23)c1` [Example 65, N-1-{3-[3-(thien-2-ylcarbonyl)pyrazolo[1,5-a]pyrimidin-7-yl]phenyl}-L-valinamide] is lower in pIC50: over 6.00 for the first, 5.00 to 6.00 for the second. The first is the more potent here.

`COCCOCC(=O)Nc1cccc(-c2ccnc3c(C(=O)c4cccs4)cnn23)c1` [Example 49, 2-(2-methoxyethoxy)-N-{3-[3-(thien-2-ylcarbonyl)pyrazolo[1,5-a]pyrimidin-7-yl]phenyl} acetamide] and `CC[C@H](C)[C@H](N)C(=O)Nc1cccc(-c2ccnc3c(C(=O)c4cccs4)cnn23)c1` [Example 62, N-1-{3-[3-(thien-2-ylcarbonyl)pyrazolo[1,5-a]pyrimidin-7-yl]phenyl}-L-isoleucinamide] fall in the same range of pIC50: 5.00 to 6.00 for the first, 5.00 to 6.00 for the second.

`CC(C)C[C@H](N)C(=O)Nc1cccc(-c2ccnc3c(C(=O)c4cccs4)cnn23)c1` [Example 61, N-1-{3-[3-(thien-2-ylcarbonyl)pyrazolo[1,5-a]pyrimidin-7-yl]phenyl}-L-leucinamide] and `N[C@@H](CC1CCCCC1)C(=O)Nc1cccc(-c2ccnc3c(C(=O)c4cccs4)cnn23)c1` [Example 64, 3-cyclohexyl-N-1-{3-[3-(thien-2-ylcarbonyl)pyrazolo[1,5-a]pyrimidin-7-yl]phenyl}-L-alaninamide] fall in the same range of pIC50: 4.30 to 5.00 for the first, 4.30 to 5.00 for the second.

First: O=C(COc1ccccc1)Nc1cccc(-c2ccnc3c(C(=O)c4cccs4)cnn23)c1 [Example 93, 2-phenoxy-N-{3-[3-(thien-2-ylcarbonyl)pyrazolo[1,5-a]pyrimidin-7-yl]pheriyl}acetamide]
Second: CCCCCNC(=O)NCC(=O)Nc1cccc(-c2ccnc3c(C(=O)c4cccs4)cnn23)c1 [Example 118, N-2-[(pentylamino)carbonyl]-N-1-{3-[3-(thien-2-ylcarbonyl)pyrazolo[1,5-A]pyrimidin-7-yl]phenyl}glycinamide]
The pIC50 of the first is higher: 5.00 to 6.00 for the first, 4.30 to 5.00 for the second. The first is the more potent here.

Compound `O=C(CNC(=O)NC1CCCCC1)Nc1cccc(-c2ccnc3c(C(=O)c4cccs4)cnn23)c1` [Example 120, N-2-[(cyclohexylamino)carbonyl]-N-1-{3-[3-(thien-2-ylcarbonyl)pyrazolo[1,5-a]pyrimidin-7-yl]phenyl}glycinamide] has a pIC50 of 5.00 to 6.00.

Same assay, conditions: Cellular activity in 80S14 (p21-deficient) cells, SRB; class symbols; read-out: IC50 for 80S14

Compared with “3-(3,5-Dimethylphenyl)-7-{3-[2-(2-piperidin-1-ylethyl)-2H-tetrazol-5-yl]phenyl}pyrazolo[1,5-a]pyrimidine [Example 388]”, “3.5-Dinitro-N-{3-[3-(2-thienylcarbonyl)pyrazolo[1,5-a]pyrimidin-7-yl]phenyl}benzamide [Example 198]” is lower in pIC50: 5.00 to 6.00 for the first, 4.30 to 5.00 for the second.

Same assay, conditions: Homo sapiens, 80S14, 120 h, read-out: IC50 for 80S14 (μM)

Compound `C=C(C)OC(=O)Nc1cccc(-c2ccnc3c(C(=O)c4cccs4)cnn23)c1` [Example 15, isopropenyl3-[3-(thien-2-ylcarbonyl)pyrazolo[1,5-a]pyrimidin-7-yl]phenylcarbamate] has an IC50 of under 1 µM.

Same assay, conditions: Homo sapiens, 120 h; 80S14 (p21-deficient) cells, 5 days at 37° C., SRB; read-out: IC50 for 80S14

`C[C@H](NC(=O)Nc1cccc(-c2ccnc3c(C(=O)c4cccs4)cnn23)c1)c1ccccc1` [Example 9, N-[(1S)-1-phenylethyl]-N′-{3-[3-(thien-2-ylcarbonyl)pyrazolo [1,5-a]pyrimidin-7-yl]phenyl}urea] and `O=C(Nc1cccc(-c2ccnc3c(C(=O)c4cccs4)cnn23)c1)c1ccc(Cl)cc1` [Example 71, 4-chloro-N-{3-[3-(thien-2-ylcarbonyl)pyrazolo[1,5-a]pyrimidin-7-yl]phenyl}benzamide] fall in the same range of pIC50: 5.00 to 6.00 for the first, 5.00 to 6.00 for the second.

`O=C(c1cccs1)c1cnn2c(-c3cccc(NC(=O)[C@@H]4CCCN4C(=O)C(F)(F)F)c3)ccnc12` [Example 41, N-{3-[3-(thien-2-ylcarbonyl)pyrazolo[1,5-a]pyrimidin-7-yl]phenyl}-1-(trifluoroacetyl)-L-prolinamide] and `O=C(c1cccs1)c1cnn2c(-c3cccc(NC(=O)[C@@H]4CCCN4)c3)ccnc12` [Example 67, N-{3-[3-(thien-2-ylcarbonyl)pyrazolo[1,5-a]pyrimidin-7-yl]phenyl}-L-prolinamide] fall in the same range of pIC50: 5.00 to 6.00 for the first, 5.00 to 6.00 for the second.

First: O=C(c1cccs1)c1cnn2c(-c3cccc(NC(=O)C45CC6CC(CC(C6)C4)C5)c3)ccnc12 [Example 42, N-{3-[3-(thien-2-ylcarbonyl)pyrazolo[1,5-a]pyrimidin-7-yl]phenyl} adamantane-1-carboxamide]
Second: O=C(CNC(=O)C12CC3CC(CC(C3)C1)C2)Nc1cccc(-c2ccnc3c(C(=O)c4cccs4)cnn23)c1 [Example 116, N-[2-oxo-2-({3-[3-(thien-2-ylcarbonyl)pyrazolo[1,5-a]pyrimidin-7-yl]phenyl}amino)ethyl] adamantane-1-carboxamide]
The pIC50 of the first is higher: over 6.00 for the first, 5.00 to 6.00 for the second.

First: C#CCCC(=O)Nc1cccc(-c2ccnc3c(C(=O)c4cccs4)cnn23)c1 [Example 45, N-{3-[3-(thien-2-ylcarbonyl)pyrazolo[1,5-a]pyrimidin-7-yl]phenyl}pent-4-ynamide]
Second: CC(=O)OCC(=O)Nc1cccc(-c2ccnc3c(C(=O)c4cccs4)cnn23)c1 [Example 48, 2-oxo-2-({3-[3-(thien-2-ylcarbonyl)pyrazolo[1,5-a]pyrimidin-7-yl]phenyl}amino)ethyl acetate]
The pIC50 of the first is higher: over 6.00 for the first, 5.00 to 6.00 for the second. The first is the more potent here.

First: O=C(Cc1cccs1)Nc1cccc(-c2ccnc3c(C(=O)c4cccs4)cnn23)c1 [Example 50, 2-thien-2-yl-N-{3-[3-(thien-2-ylcarbonyl)pyrazolo[1,5-a]pyrimidin-7-yl]phenyl}acetamide]
Second: CC(C)(C)C(=O)NCC(=O)Nc1cccc(-c2ccnc3c(C(=O)c4cccs4)cnn23)c1 [Example 114, 2,2-dimethyl-N-[2-oxo-2-({3-[3-(thien-2-ylcarbonyl)pyrazolo[1,5-a]pyrimidin-7-yl]phenyl}amino)ethyl]propanamide]
The pIC50 of the first is higher: over 6.00 for the first, 5.00 to 6.00 for the second.

`N[C@H](C(=O)Nc1cccc(-c2ccnc3c(C(=O)c4cccs4)cnn23)c1)C1CCCCC1` [Example 68, (2S)-2-amino-2-cyclohexyl-N-{3-[3-(thien-2-ylcarbonyl)pyrazolo[1,5-a]pyrimidin-7-yl]phenyl}ethanamide] gave a pIC50 of 5.00 to 6.00.
